Test results: US20100041089A1, “IMPROVED METHOD FOR DETECTING CHEMICAL […]” (priority 2006, published 2010)

System: yeast genes (expressed mRNA)
Assay: DNA chip measurement of expressed mRNA of yeast genes after culture with a toxic chemical substance
Assay type: cell-based, Saccharomyces cerevisiae S288C
Details: for level of expressed mRNA in the presence of chemical substance / level in the absence of chemical substance: cultured two hours with the chemical substance; for The level of expressed mRNA in the presence of chemical substance/The level of expressed mRNA in the absence of chemical substance: cultured two hours with substance
Procedure: Yeast (Saccharomyces cerevisiae S288C (a SUC2mal mel gap2 CUP1)) were cultured at 25° C. on YPD medium (yeast extract 1%, polypeptone 2%, glucose 2%). One of toxic chemical substances was added to the cell at logarithmic growth phase, and the cell was further cultured for two hours. Cell was cultured without any chemical substance in the same condition, and was used as a control. Concentrations of the chemical substances were defined to inhibit the growth of the yeast but not lead to death.
After the completion of cultivation, the culture was centrifuged to collect the cells. To the cells, sodium acetate buffer (50 mM sodium acetate, 10 mM EDTA, 1% SDS) was added, and the mixture was shaken at 65° C. for five minutes, followed by returning to room temperature, and obtaining the supernatant, which procedure was repeated two times. To the supernatant, ½ amount of a solution of phenol/chloroform (1:1) was added, and the mixture was centrifuged to give a supernatant, an equal amount of chloroform was added, and the mixture was centrifuged to give a supernatant. To the supernatant, an equal amount of isopropanol containing 0.3 M sodium acetate was added, and the mixture was allowed to stand at room temperature for 30 minutes, after which the mixture was centrifuged to give sediment of the whole RNAs. Seventy % ethanol was added to the sediment, and the mixture was again centrifuged to give sediment, which was then dried and dissolved in water. mRNA was isolated from the whole RNAs as followings. In view of the fact that a poly A chain is attached to the 3′ terminus of mRNA, a polynucleotide having a poly T structure which was immobilized on the surface of latex beads was used to trap the mRNA, and then the mRNA was washed and eluted with spine column (Oligotex-dT30<Super>mRNA Purification Kit, Takara). Reverse transcription of the mRNA was conducted with a reverse transcriptase (Super Script II Reverse Transcriptase; catalogue No. 18064-014, GibcoBRL) using fluorescence-labeled nucleotides to give cDNAs that were introduced with Cy3-dUTP or Cy5-dUTP during the reverse transcription.
The labeled cDNAs were dissolved in TE buffer (10 mM Tris-HCl/1 mM EDTA, pH 8.0), and the solution was dropped on the DNA chip containing the whole genes of yeast (DNA Chip Research Inc. Japan) so that the cDNAs were hybridized on the DNA chip at 65° C. for over 12 hours. The fluoresces intensity of the DNA chip was read with a scanner, and the ratio relative to the fluorescence intensity resulting from the absence of chemical substance was estimated as the following, which is shown in Tables 1 to 9.
In the Tables, “Intensity” indicated in the rightmost column is a value of the level of expressed mRNA of each gene in control cells as divided by the average level of the expressions of the whole genes. A gene of which mRNA level is lower in control, and is higher in cases of addition of chemical substance, is especially useful in the detection of toxic substances.
Here, when a ratio of an amount of mRNA expressed in the presence of the chemical substance to an amount of mRNA expressed in the absence of the chemical substance is two or more, then it is considered significant.

For `[Cl][Hg][Cl]` [(3), HgCl2], the “The level of expressed mRNA in the presence of chemical substance/The level of expressed mRNA in the absence of chemical substance, yeast gene YBR036C” value (gene YBR036C, Metabolism protein genes, DNA chip fluorescence ratio) was 1.8, the “The level of expressed mRNA in the presence of chemical substance/The level of expressed mRNA in the absence of chemical substance, yeast gene YBR298C” value (gene YBR298C, Metabolism protein genes, DNA chip fluorescence ratio) was 1.6 and the “The level of expressed mRNA in the presence of chemical substance/The level of expressed mRNA in the absence of chemical substance, yeast gene YDL067C” value (gene YDL067C (mitochondria-located protein gene), yeast cultured two hours with chemical substance, DNA chip fluorescence ratio to control) was 1.6. For the same compound, the “The level of expressed mRNA in the presence of chemical substance/The level of expressed mRNA in the absence of chemical substance, yeast gene YDL078C” value (gene YDL078C, Metabolism protein genes, DNA chip fluorescence ratio) was 1.2, the “The level of expressed mRNA in the presence of chemical substance/The level of expressed mRNA in the absence of chemical substance, yeast gene YDL215C” value (gene YDL215C, Metabolism protein genes, DNA chip fluorescence ratio) was 1.0 and the “The level of expressed mRNA in the presence of chemical substance/The level of expressed mRNA in the absence of chemical substance, yeast gene YDR079W” value (gene YDR079W (mitochondria-located protein gene), yeast cultured two hours with chemical substance, DNA chip fluorescence ratio to control) was 0.8. For the same compound, the “The level of expressed mRNA in the presence of chemical substance/The level of expressed mRNA in the absence of chemical substance, yeast gene YDR297W” value (gene YDR297W, Metabolism protein genes, DNA chip fluorescence ratio) was 0.8, the “The level of expressed mRNA in the presence of chemical substance/The level of expressed mRNA in the absence of chemical substance, yeast gene YDR387C” value (gene YDR387C, Metabolism protein genes, DNA chip fluorescence ratio) was 1.2 and the “The level of expressed mRNA in the presence of chemical substance/The level of expressed mRNA in the absence of chemical substance, yeast gene YGL035C” value (gene YGL035C, Metabolism protein genes, DNA chip fluorescence ratio) was 4.3. For the same compound, the “The level of expressed mRNA in the presence of chemical substance/The level of expressed mRNA in the absence of chemical substance, yeast gene YGR062C” value (gene YGR062C (mitochondria-located protein gene), yeast cultured two hours with chemical substance, DNA chip fluorescence ratio to control) was 0.7, the “The level of expressed mRNA in the presence of chemical substance/The level of expressed mRNA in the absence of chemical substance, yeast gene YGR287C” value (gene YGR287C, Metabolism protein genes, DNA chip fluorescence ratio) was 1.3 and the “The level of expressed mRNA in the presence of chemical substance/The level of expressed mRNA in the absence of chemical substance, yeast gene YJL070C” value (gene YJL070C, Metabolism protein genes, DNA chip fluorescence ratio) was 1.1. For the same compound, the “The level of expressed mRNA in the presence of chemical substance/The level of expressed mRNA in the absence of chemical substance, yeast gene YJL096W” value (gene YJL096W (mitochondria-located protein gene), yeast cultured two hours with chemical substance, DNA chip fluorescence ratio to control) was 0.8, the “The level of expressed mRNA in the presence of chemical substance/The level of expressed mRNA in the absence of chemical substance, yeast gene YJL180C” value (gene YJL180C (mitochondria-located protein gene), yeast cultured two hours with chemical substance, DNA chip fluorescence ratio to control) was 1.1 and the “The level of expressed mRNA in the presence of chemical substance/The level of expressed mRNA in the absence of chemical substance, yeast gene YKR009C” value (gene YKR009C, Metabolism protein genes, DNA chip fluorescence ratio) was 1.5. For the same compound, the “The level of expressed mRNA in the presence of chemical substance/The level of expressed mRNA in the absence of chemical substance, yeast gene YLR295C” value (gene YLR295C (mitochondria-located protein gene), yeast cultured two hours with chemical substance, DNA chip fluorescence ratio to control) was 1.1, the “The level of expressed mRNA in the presence of chemical substance/The level of expressed mRNA in the absence of chemical substance, yeast gene YLR351C” value (gene YLR351C, Metabolism protein genes, DNA chip fluorescence ratio) was 1.3 and the “The level of expressed mRNA in the presence of chemical substance/The level of expressed mRNA in the absence of chemical substance, yeast gene YLR375W” value (gene YLR375W, Metabolism protein genes, DNA chip fluorescence ratio) was 0.9. For the same compound, the “The level of expressed mRNA in the presence of chemical substance/The level of expressed mRNA in the absence of chemical substance, yeast gene YMR023C” value (gene YMR023C (mitochondria-located protein gene), yeast cultured two hours with chemical substance, DNA chip fluorescence ratio to control) was 0.5, the “The level of expressed mRNA in the presence of chemical substance/The level of expressed mRNA in the absence of chemical substance, yeast gene YMR267W” value (gene YMR267W (mitochondria-located protein gene), yeast cultured two hours with chemical substance, DNA chip fluorescence ratio to control) was 0.7 and the “The level of expressed mRNA in the presence of chemical substance/The level of expressed mRNA in the absence of chemical substance, yeast gene YMR267W” value (gene YMR267W, Metabolism protein genes, DNA chip fluorescence ratio) was 0.7. The “The level of expressed mRNA in the presence of chemical substance/The level of expressed mRNA in the absence of chemical substance, yeast gene YMR278W” value (gene YMR278W, Metabolism protein genes, DNA chip fluorescence ratio) was 1.4, the “The level of expressed mRNA in the presence of chemical substance/The level of expressed mRNA in the absence of chemical substance, yeast gene YMR293C” value (gene YMR293C, Metabolism protein genes, DNA chip fluorescence ratio) was 1.6 and the “The level of expressed mRNA in the presence of chemical substance/The level of expressed mRNA in the absence of chemical substance, yeast gene YNL073W” value (gene YNL073W (mitochondria-located protein gene), yeast cultured two hours with chemical substance, DNA chip fluorescence ratio to control) was 0.9. For the same compound, the “The level of expressed mRNA in the presence of chemical substance/The level of expressed mRNA in the absence of chemical substance, yeast gene YNR072W” value (gene YNR072W, Metabolism protein genes, DNA chip fluorescence ratio) was 0.5, the “The level of expressed mRNA in the presence of chemical substance/The level of expressed mRNA in the absence of chemical substance, yeast gene YOL096C” value (gene YOL096C, Metabolism protein genes, DNA chip fluorescence ratio) was 1.2 and the “The level of expressed mRNA in the presence of chemical substance/The level of expressed mRNA in the absence of chemical substance, yeast gene YOR180C” value (gene YOR180C, Metabolism protein genes, DNA chip fluorescence ratio) was 1.0. For the same compound, the “The level of expressed mRNA in the presence of chemical substance/The level of expressed mRNA in the absence of chemical substance, yeast gene YOR316C” value (gene YOR316C (mitochondria-located protein gene), yeast cultured two hours with chemical substance, DNA chip fluorescence ratio to control) was 1.5, the “The level of expressed mRNA in the presence of chemical substance/The level of expressed mRNA in the absence of chemical substance, yeast gene YOR363C” value (gene YOR363C, Metabolism protein genes, DNA chip fluorescence ratio) was 0.9 and the “The level of expressed mRNA in the presence of chemical substance/The level of expressed mRNA in the absence of chemical substance, yeast gene YPL040C” value (gene YPL040C (mitochondria-located protein gene), yeast cultured two hours with chemical substance, DNA chip fluorescence ratio to control) was 0.8. The “The level of expressed mRNA in the presence of chemical substance/The level of expressed mRNA in the absence of chemical substance, yeast gene YPL134C” value (gene YPL134C (mitochondria-located protein gene), yeast cultured two hours with chemical substance, DNA chip fluorescence ratio to control) was 1.6, the “The level of expressed mRNA in the presence of chemical substance/The level of expressed mRNA in the absence of chemical substance, yeast gene YPR184W” value (gene YPR184W, Metabolism protein genes, DNA chip fluorescence ratio) was 5.7 and the “level of expressed mRNA in the presence of chemical substance / level in the absence of chemical substance” value (yeast gene YAL018C) was 1.1. The “The level of expressed mRNA in the presence of chemical substance/The level of expressed mRNA in the absence of chemical substance” value (yeast gene YAL053W) was 1.3, the “level of expressed mRNA in the presence of chemical substance / level in the absence of chemical substance” value (yeast gene YAR047C) was 1.5 and the “level of expressed mRNA in the presence of chemical substance / level in the absence of chemical substance” value (yeast gene YAR064W) was 0.9. The “level of expressed mRNA in the presence of chemical substance / level in the absence of chemical substance” value (yeast gene YBL044W) was 2.1, the “The level of expressed mRNA in the presence of chemical substance/The level of expressed mRNA in the absence of chemical substance” value (yeast gene YBL048W) was 2.3 and the “The level of expressed mRNA in the presence of chemical substance/The level of expressed mRNA in the absence of chemical substance” value (yeast gene YBL107C) was 0.4. The “level of expressed mRNA in the presence of chemical substance / level in the absence of chemical substance” value (yeast gene YBR012C) was 1.3, the “level of expressed mRNA in the presence of chemical substance / level in the absence of chemical substance” value (yeast gene YBR066C) was 1.6 and the “level of expressed mRNA in the presence of chemical substance / level in the absence of chemical substance” value (yeast gene YBR124W) was 1.5. For the same compound, the “level of expressed mRNA in the presence of chemical substance / level in the absence of chemical substance” value (yeast gene YBR162C) was 3.1, the “level of expressed mRNA in the presence of chemical substance / level in the absence of chemical substance” value (yeast gene YBR287W) was 3.1 and the “level of expressed mRNA in the presence of chemical substance / level in the absence of chemical substance” value (yeast gene YCL042W) was 7.2. The “level of expressed mRNA in the presence of chemical substance / level in the absence of chemical substance” value (yeast gene YCL056C) was 0.7, the “level of expressed mRNA in the presence of chemical substance / level in the absence of chemical substance” value (yeast gene YCR007C) was 0.9 and the “level of expressed mRNA in the presence of chemical substance / level in the absence of chemical substance” value (yeast gene YDL046W) was 5.1. For the same compound, the “The level of expressed mRNA in the presence of chemical substance/The level of expressed mRNA in the absence of chemical substance” value (yeast gene YDL072C) was 3.5, the “The level of expressed mRNA in the presence of chemical substance/The level of expressed mRNA in the absence of chemical substance” value (yeast gene YDL204W) was 4.8 and the “The level of expressed mRNA in the presence of chemical substance/The level of expressed mRNA in the absence of chemical substance” value (yeast gene YDL222C) was 1.5. The “level of expressed mRNA in the presence of chemical substance / level in the absence of chemical substance” value (yeast gene YDR090C) was 0.8.
